Counter-ions that a name gives are not always drawn.
Biological target: T1, CFTR channel in human colonic T84 cells (Homo sapiens, UniProt P13569)
T1 construct: results in the phosphorylation and opening of CFTR anion channels; host or cells: human colonic T84 cells
Experiment: T84 assay (FLIPR membrane potential dye, forskolin/IBMX-stimulated CFTR)
Format: cell-based
Conditions: average of at least 2 runs unless annotated n = 1
Summary of the method: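 T84 cells (25,000/well, grown overnight) were washed in HBSS with 10 mM Hepes, then loaded with FLIPR Red membrane potential dye for 45 min with or without compound. CFTR was stimulated with 10 μM forskolin plus 100 μM IBMX after a 10 s baseline. Depolarization was tracked as a fluorescence increase, read every second for 150 s.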

T1 sequence (P13569 whole entry): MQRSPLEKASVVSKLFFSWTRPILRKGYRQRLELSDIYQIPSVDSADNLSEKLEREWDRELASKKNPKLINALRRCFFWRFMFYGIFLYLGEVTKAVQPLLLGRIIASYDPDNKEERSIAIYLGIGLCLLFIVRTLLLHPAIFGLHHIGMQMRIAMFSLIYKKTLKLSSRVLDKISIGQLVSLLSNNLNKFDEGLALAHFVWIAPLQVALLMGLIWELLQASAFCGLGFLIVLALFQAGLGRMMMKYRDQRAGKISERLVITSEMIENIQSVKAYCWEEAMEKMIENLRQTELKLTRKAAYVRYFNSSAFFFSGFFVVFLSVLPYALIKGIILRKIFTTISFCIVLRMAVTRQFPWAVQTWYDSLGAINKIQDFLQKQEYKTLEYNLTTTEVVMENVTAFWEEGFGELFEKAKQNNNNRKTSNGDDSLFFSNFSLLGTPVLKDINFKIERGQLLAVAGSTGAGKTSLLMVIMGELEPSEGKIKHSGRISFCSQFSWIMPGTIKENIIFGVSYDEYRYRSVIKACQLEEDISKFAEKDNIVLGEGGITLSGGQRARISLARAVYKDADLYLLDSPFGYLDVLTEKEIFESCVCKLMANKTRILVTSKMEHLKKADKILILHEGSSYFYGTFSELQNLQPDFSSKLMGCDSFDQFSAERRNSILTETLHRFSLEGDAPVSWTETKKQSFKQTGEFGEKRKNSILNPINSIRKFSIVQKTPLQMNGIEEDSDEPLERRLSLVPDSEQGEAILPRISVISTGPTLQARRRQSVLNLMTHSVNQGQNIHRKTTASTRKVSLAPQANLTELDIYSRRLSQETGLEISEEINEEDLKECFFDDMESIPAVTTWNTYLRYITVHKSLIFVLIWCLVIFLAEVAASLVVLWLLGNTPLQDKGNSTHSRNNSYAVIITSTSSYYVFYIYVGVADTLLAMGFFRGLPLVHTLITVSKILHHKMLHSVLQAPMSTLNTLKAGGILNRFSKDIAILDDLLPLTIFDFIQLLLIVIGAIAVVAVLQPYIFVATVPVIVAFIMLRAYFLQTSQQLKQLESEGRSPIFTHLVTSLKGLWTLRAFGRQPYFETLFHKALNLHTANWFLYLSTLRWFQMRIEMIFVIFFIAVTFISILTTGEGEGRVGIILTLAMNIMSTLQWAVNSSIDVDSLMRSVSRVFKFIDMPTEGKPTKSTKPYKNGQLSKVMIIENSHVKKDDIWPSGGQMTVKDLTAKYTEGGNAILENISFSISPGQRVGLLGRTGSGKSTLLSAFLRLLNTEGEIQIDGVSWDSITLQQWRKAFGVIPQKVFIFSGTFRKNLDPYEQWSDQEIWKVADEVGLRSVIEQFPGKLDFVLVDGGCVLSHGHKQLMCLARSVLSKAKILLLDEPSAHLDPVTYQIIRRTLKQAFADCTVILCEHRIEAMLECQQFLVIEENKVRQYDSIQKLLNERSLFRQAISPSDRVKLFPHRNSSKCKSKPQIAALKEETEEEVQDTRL

| SMILES | IC50 |
| --- | --- |
| Oc1c(Cl)cc(-c2cnc(NCc3ccc(Cl)c(Cl)c3)nn2)cc1Cl [Compound 133, 2,6-dichloro-4-(3-(3,4-dichlorobenzylamino)-1,2,4-triazin-6-yl)phenol, formate salt] | 23.7 µM |
| Oc1c(Cl)cc(-c2cnc(NCc3ccc(Cl)cc3Cl)nn2)cc1Cl [Compound 134, 2,6-dichloro-4-(3-(2,4-dichlorobenzylamino)-1,2,4-triazin-6-yl)phenol, formate salt] | 9.65 µM |
| Oc1c(Cl)cc(-c2cnc(NCc3ccc(Cl)cc3)nn2)cc1Cl [Compound 135, 2,6-dichloro-4-(3-(4-chlorobenzylamino)-1,2,4-triazin-6-yl)phenol] | 6.14 µM |
| O=S1(=O)CCN(Cc2ccc(COc3ncc(-c4cc(Cl)c(O)c(Cl)c4)nn3)cc2)CC1 [Compound 136, formate salt] | 18.3 µM |
| CN1CCN(c2ccc(CNc3ncc(-c4cc(Cl)c(O)c(Cl)c4)nn3)cc2)CC1 [Compound 137, 2,6-dichloro-4-(3-(4-(4-methylpiperazin-1-yl)benzylamino)-1,2,4-triazin-6-yl)phenol, formate salt] | 21.3 µM |
| CN(CCOc1ncc(-c2cc(Cl)c(O)c(Cl)c2)nn1)Cc1ccccc1 [Compound 138, 4-(3-(2-(benzyl(methyl)amino)ethoxy)-1,2,4-triazin-6-yl)-2,6-dichlorophenol] | 18.9 µM |
| CN(C)c1ccccc1COc1ncc(-c2cc(Cl)c(O)c(Cl)c2)nn1 [Compound 140, 2,6-dichloro-4-(3-(2-(dimethylamino)benzyloxy)-1,2,4-triazin-6-yl)phenol] | 19.4 µM |
| O=Cc1ccc(COc2ncc(-c3cc(Cl)c(O)c(Cl)c3)nn2)cc1 [Compound 142, 4-((6-(3,5-dichloro-4-hydroxyphenyl)-1,2,4-triazin-3-yloxy)methyl)benzaldehyde] | 10.7 µM |
| O=C(O)c1ccccc1N1CCN(Cc2ccc(COc3ncc(-c4cc(Cl)c(O)c(Cl)c4)nn3)cc2)CC1 [Compound 144, 2-(4-(4-((6-(3,5-dichloro-4-hydroxyphenyl)-1,2,4-triazin-3-yloxy)methyl)benzyl)piperazin-1-yl)benzic acid] | 28.6 µM |
| Oc1c(Cl)cc(-c2cnc(OCc3ccc(CN4CCN(CCc5ccccc5)CC4)cc3)nn2)cc1Cl [Compound 152, 2,6-dichloro-4-(3-(4-((4-phenethylpiperazin-1-yl)methyl)benzyloxy)-1,2,4-triazin-6-yl)phenol] | 8.88 µM |
| O=C(COc1ccccc1)N1CCN(Cc2ccc(COc3ncc(-c4cc(Cl)c(O)c(Cl)c4)nn3)cc2)CC1 [Compound 155, 1-(4-(4-((6-(3,5-dichloro-4-hydroxyphenyl)-1,2,4-triazin-3-yloxy)methyl)benzyl)piperazin1-yl)-2-phenoxyethanone] | 4.95 µM |
| Oc1c(Cl)cc(-c2cnc(OCc3ccc(CNCc4ccncc4)cc3)nn2)cc1Cl [Compound 156, 2,6-dichloro-4-(3-(4-((pyridin-4-ylmethylamino)methyl)benzyloxy)-1,2,4-triazin-6-yl)phenol] | 15.4 µM |
| Oc1c(Cl)cc(-c2cnc(OCc3ccc(CN4CCN(Cc5cccnc5)CC4)cc3)nn2)cc1Cl [Compound 158, 2,6-dichloro-4-(3-(4-((4-(pyridin-3-ylmethyl)piperazin-1-yl)methyl)benzyloxy)-1,2,4-triazin-6-yl)phenol] | 14.2 µM |
| OCCN(Cc1cccnc1)c1ncc(-c2cc(Cl)c(O)c(Cl)c2)nn1 [Compound 160, 2,6-dichloro-4-(3-((2-hydroxyethyl)(pyridin-3-ylmethyl)amino)-1,2,4-triazin-6-yl)phenol] | 22.4 µM |
| CN(Cc1ccc(COc2ncc(-c3cc(Cl)c(O)c(Cl)c3)nn2)cc1)CC(O)c1ccccc1 (centres unmarked) [Compound 161, 2,6-dichloro-4-(3-(4-(((2-hydroxy-2-phenylethyl)(methyl)amino)methyl)benzyloxy)-1,2,4-triazin-6-phenol, formate salt] | 18.3 µM |
| Oc1c(Cl)cc(-c2cnc(OCc3ccc(CNCc4ccc(F)cc4)cc3)nn2)cc1Cl [Compound 164, 2,6-dichloro-4-(3-(4-((4-fluorobenzylamino)methyl)benzyloxy)-1,2,4-triazin-6-yl)phenol] | 28.5 µM |
| Oc1c(Cl)cc(-c2cnc(OCc3ccc(CN(Cc4ccccc4)Cc4ccccc4)cc3)nn2)cc1Cl [Compound 167, 2,6-dichloro-4-(3-(4-((dibenzylamino)methyl)benzyl-oxy)-1,2,4-triazin-6-yl)phenol] | 6.61 µM |
| Oc1c(Cl)cc(-c2cnc(OCc3ccc(CN4CCC(Cc5ccccc5)CC4)cc3)nn2)cc1Cl [Compound 168, 4-(3-(4-((4-benzylpiperidin-1-yl)methyl)benzyloxy)-1,2,4-triazin-6-yl)-2,6-dichlorophenol] | 13.9 µM |
| Oc1c(Cl)cc(-c2cnc(OCc3ccc(CNCc4ccc(C(F)(F)F)nc4)cc3)nn2)cc1Cl [Compound 169, 2,6-dichloro-4-(3-(4-(((6-(trifluoromethyl)pyridin-3-yl)methylamino)methyl)benzyl-oxy)-1,2,4-triazin-6-yl)phenol] | 7.77 µM |

Next, values leading:

| IC50 | SMILES |
| --- | --- |
| 3.04 µM | CC(C)(C)OC(=O)N1CCC(COc2ncc(-c3cc(Cl)c(O)c(Cl)c3)nn2)(c2ccccc2)CC1 [Compound 139, tert-butyl 4-((6-(3,5-dichloro-4-hydroxyphenyl)-1,2,4-triazin-3-yloxy)methyl)-4-phenylpiperidine-1-carboxylate] |
| 3.81 µM | Oc1c(Cl)cc(-c2cnc(OCc3ccc(CNCc4cccc(Cl)c4Cl)cc3)nn2)cc1Cl [Compound 141, 2,6-dichloro-4-(3-(4-((2,3 —dichlorobenzylamino)methyl)benzyloxy)-1,2,4-triazin-6-yl)phenol] |
| 3.75 µM | Oc1c(Cl)cc(-c2cnc(OCc3ccc(CN4CCN(c5ccccc5)CC4)cc3)nn2)cc1Cl [Compound 143, 2,6-dichloro-4-(3-(4-((4-phenylpiperazin-1-yl)methyl)benzyloxy)-1,2,4-triazin-6-yl)phenol] |
| 1.55 µM | CC(C)(C)OC(=O)N1CCN(Cc2ccc(COc3ncc(-c4cc(Cl)c(O)c(Cl)c4)nn3)cc2)CC1 [Compound 145, tert-butyl 4-(4-((6-(3,5-dichloro-4-hydroxyphenyl)-1,2,4-triazin-3-yloxy)methyl)benzyl)piperazine1-carboxylate, ammonium salt] |
| 5.21 µM | Oc1c(Cl)cc(-c2cnc(OCc3ccc(F)cc3)nn2)cc1Cl [Compound 146, 2,6-dichloro-4-(3-(4-fluorobenzyloxy)-1,2,4-triazin-6-yl)phenol] |
| 2.83 µM | Oc1c(Cl)cc(-c2cnc(OCc3ccc(F)c(F)c3)nn2)cc1Cl [Compound 147, 2,6-dichloro-4-(3-(3,4-difluorobenzyloxy)-1,2,4-triazin-6-yl)phenol] |
| 3.97 µM | Oc1c(Cl)cc(-c2cnc(OCc3ccc(F)cc3F)nn2)cc1Cl [Compound 148, 2,6-dichloro-4-(3-(2,4-difluorobenzyloxy)-1,2,4-triazin-6-yl)phenol] |
| 3.9 µM | Oc1c(Cl)cc(-c2cnc(OCc3ccc(CNCc4cccc5ccccc45)cc3)nn2)cc1Cl [Compound 149, 2,6-Dichloro-4-(3-(4-((naphthalen-1-ylmethylamino)methyl)benzyloxy)-1,2,4-triazin-6-yl)phenol] |
| 2.01 µM | Oc1c(Cl)cc(-c2cnc(OCc3ccc(CN4CCN(c5ccc(Cl)cc5Cl)CC4)cc3)nn2)cc1Cl [Compound 150, 2,6-dichloro-4-(3-(4-((4-(2,4-dichlorophenyl)piperazin-1-yl)methyl)benzyloxy)-1,2,4-triazin-6-yl)phenol] |
| 1.92 µM | Oc1c(Cl)cc(-c2cnc(OCc3ccc(CN4CCN(c5ccc(F)cc5F)CC4)cc3)nn2)cc1Cl [Compound 151, 2,6-dichloro-4-(3-(4-((4-(2,4-difluorophenyl)piperazin-1-yl)methyl)benzyloxy)-1,2,4-triazin-6-yl)phenol] |
| 2.17 µM | Oc1c(Cl)cc(-c2cnc(OCc3cccc(OC(F)(F)F)c3)nn2)cc1Cl [Compound 153, 2,6-dichloro-4-(3-(3-(trifluoromethoxy)benzyloxy)-1,2,4-triazin-6-yl)phenol] |
| 1.56 µM | Oc1c(Cl)cc(-c2cnc(OCc3ccc(OC(F)(F)F)cc3)nn2)cc1Cl [Compound 154, 2,6-dichloro-4-(3-(4-(trifluoromethoxy)benzyloxy)-1,2,4-triazin-6-yl)phenol] |
| 2.27 µM | Oc1c(Cl)cc(-c2cnc(OCc3ccc(CNC(CN4CCOCC4)c4ccccc4)cc3)nn2)cc1Cl (centres unmarked) [Compound 157, 2,6-dichloro-4-(3-(4-((2-morpholino-1-phenylethylamino)methyl)benzyloxy)-1,2,4-triazin-6-yl)phenol] |
| 3.37 µM | OCCN(Cc1ccccc1)Cc1ccc(COc2ncc(-c3cc(Cl)c(O)c(Cl)c3)nn2)cc1 [Compound 159, 4-(3-(4-((benzyl(2-hydroxyethyl)amino)methyl)benzyloxy)-1,2,4-triazin-6-yl)-2,6-dichlorophenol] |
| 2.96 µM | Oc1c(Cl)cc(-c2cnc(OCc3ccc(CN4Cc5ccccc5C4)cc3)nn2)cc1Cl [Compound 162, 2,6-dichloro-4-(3-(4-(isoindolin-2-ylmethyl)benzyloxy)-1,2,4-triazin-6-yl)phenol] |
| 2.66 µM | CN(Cc1ccccc1)Cc1ccc(COc2ncc(-c3cc(Cl)c(O)c(Cl)c3)nn2)cc1 [Compound 163, 4-(3-(4-((benzyl(methyl)amino)methyl)benzyloxy)-1,2,4-triazin-6-yl)-2,6-dichlorophenol] |
| 2.46 µM | CN(Cc1ccc(F)cc1)Cc1ccc(COc2ncc(-c3cc(Cl)c(O)c(Cl)c3)nn2)cc1 [Compound 165, 2,6-dichloro-4-(3-(4-(((4-fluorobenzyl)(methyl)amino)methyl)benzyloxy)-1,2,4-triazin-6-yl)phenol] |
| 3.08 µM | Oc1c(Cl)cc(-c2cnc(OCc3ccc(CN4CCc5ccccc5C4)cc3)nn2)cc1Cl [Compound 166] |
| 2.81 µM | CN(Cc1ccc(COc2ncc(-c3cc(Cl)c(O)c(Cl)c3)nn2)cc1)Cc1cncc(Br)c1 [Compound 170, 4-(3-(4-((((5-bromopyridin-3-yl)methyl)(methyl)amino)methyl)benzyloxy)-1,2,4-triazin-6-yl)-2,6-dichlorophenol] |
